Reference: PubChem BioAssay (NCI)
Several values for one entry are separate records, joined by “and”; a condition that tells them apart may be missing. Equal entries are not always repeated.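 All cell lines were grown in 96-well plates and treated with compound for 48 hours. Abbreviation: GI50, concentration required for 50% inhibition of growth. TGI marks complete inhibition of growth.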

Columns and labels:
Experiment in all cases: inhibition of tumour cell growth, NCI panel, 48 h
[1] = system: A498 renal
[2] = system: COLO 205 colon
[3] = system: DU-145 prostate
[4] = system: EKVX NSCLC
[5] = system: HCC-2998 colon
[6] = system: HOP-62 NSCLC
[7] = system: IGROV1 ovarian
[8] = system: MDA-MB-435
[9] = system: OVCAR-3 ovarian
[10] = system: SK-OV-3 ovarian
[11] = system: T-47D breast

SMILES	TGI [1]	TGI [2]	TGI [3]	TGI [4]	TGI [5]	TGI [6]	TGI [7]	TGI [8]	TGI [9]	TGI [10]	TGI [11]	GI50 [1]	GI50 [4]	GI50 [8]	GI50 [9]	GI50 [11]
C=C(C)C(=O)CC[C@@H](C)[C@H]1[C@@H](OC2OC(CO)C(O)C(O)C2O)C[C@@]2(C)[C@@H]3C[C@H](O)C4C(C)(C)[C@@H](OC5OC(CO)C(O)C(O)C5O)CC[C@@]45C[C@@]35CC[C@]12C (some centres not stated)	> 100 µM	> 100 µM	> 100 µM	> 100 µM	> 100 µM	> 100 µM	> 100 µM	> 100 µM	> 100 µM	> 100 µM	> 100 µM					
CC(=O)NC1C(OCc2ccccc2)OC(CO)C(O)C1OCC(=O)NC(C)C(=O)NC(CCC(=O)NCCCCNc1ccc([N+](=O)[O-])c2[nH]c3ccccc3c(=O)c12)C(N)=O (configuration not stated)	> 100 µM	> 100 µM	> 100 µM	> 100 µM	> 100 µM	> 100 µM	> 100 µM	> 100 µM	> 100 µM	> 100 µM	> 100 µM					
O=C1c2ccccc2C2CNC1(O)c1ccccc12 (configuration not stated)	> 100 µM	> 100 µM	> 100 µM	> 100 µM	> 100 µM	> 100 µM	> 100 µM	> 100 µM	> 100 µM	> 100 µM	> 100 µM					
O=C1Oc2ccccc2C(=O)/C1=C/N1C(=O)N/C(=C\c2ccccc2O)C1=O	> 100 µM	> 100 µM	> 100 µM	> 100 µM	> 100 µM	> 100 µM	> 100 µM	> 100 µM	> 100 µM	> 100 µM	> 85.5 µM					
O=S(=O)(c1ccc(Br)cc1)n1c2ccc(Br)cc2c2nc3ccccc3nc21	> 100 µM	> 100 µM	> 100 µM	> 100 µM	> 100 µM	> 100 µM	> 100 µM	> 100 µM	> 100 µM	> 100 µM	> 100 µM					
CN(C)CCNc1ccc(C(=O)NCCCN(C)CCCNC(=O)c2ccc(NCCN(C)C)c3c(=O)c4ccccc4[nH]c23)c2[nH]c3ccccc3c(=O)c12	1.12 µM	0.727 µM	2.48 µM	3.8 µM	0.135 µM	1.5 µM	0.229 µM	0.286 µM	7.5 µM	1.3 µM	2.64 µM					
O=C1c2c(F)c(F)c(F)c(F)c2SC2=NCCN12	32.9 µM	19 µM	31 µM	41.4 µM	28 µM	32.6 µM	17.7 µM	8.59 µM	9.21 µM	28.7 µM	29 µM					
OCCOc1ccc(-c2cc(-c3ccccn3)nc(-c3ccccn3)c2)cc1	17 µM	6.29 µM	> 30.5 µM	> 100 µM	> 18.4 µM	> 18.9 µM	> 100 µM	> 100 µM	6.67 µM	2.17 µM	> 100 µM					
O=C1C(N2CCCC2)=CC(=O)c2c(O)c(N3CCCC3)c(Cl)c(O)c21	> 10 µM	> 10 µM	> 10 µM	> 10 µM	> 10 µM	> 10 µM	> 10 µM	> 10 µM	> 10 µM	> 10 µM	> 10 µM					
c1ccc(CNC2CC(NCc3ccccn3)CC(NCc3ccccn3)C2)nc1 (configuration not stated)	3.31 µM and 6.25 µM and 3.51 µM	4.02 µM and 4.61 µM and 3.21 µM	8.52 µM and 17.1 µM	14.7 µM and 25 µM and 16.6 µM	3.72 µM	20.8 µM and 20.4 µM and 23 µM	10.1 µM and 11.1 µM and 22.5 µM	9.45 µM and 8.78 µM and 15.5 µM	9.72 µM and 12.1 µM and 15.9 µM	7.86 µM and 8.7 µM and 7.17 µM	21.5 µM and 25 µM and 25.6 µM	2.06 µM	3.87 µM and 7.93 µM and 3.88 µM	3.84 µM	4.59 µM	6.64 µM
COc1cccc2c1OC1c3ccccc3OCC1C2 (configuration not stated)	> 100 µM	> 100 µM	> 100 µM	> 100 µM	> 100 µM	> 100 µM	> 100 µM	> 100 µM	> 100 µM	> 100 µM	> 100 µM					
Cc1[nH]c2ncn(/N=C/c3ccccc3O)c(=N)c2c1Cc1ccccc1	> 100 µM	> 100 µM	> 100 µM	> 100 µM	88.7 µM	> 100 µM	> 100 µM	48.8 µM	71.8 µM	> 100 µM	> 100 µM					
CCCCNC1CCC2(SCCS2)c2[nH]c3ccccc3c21 (configuration not stated)	76.7 µM	> 62.3 µM	> 93.8 µM	> 100 µM	38.8 µM	> 100 µM	> 100 µM	> 49.6 µM	46.7 µM	> 100 µM	6.23 µM					
CN1C/C(=C\c2cccs2)C2=NC(=S)NC(c3cccs3)C2C1 (configuration not stated)	> 100 µM	> 100 µM	> 100 µM	> 100 µM	> 100 µM	> 100 µM	> 100 µM	> 100 µM	> 100 µM	> 100 µM	84.5 µM					
CC[n+]1cnc(N)c2c(-c3ccc(Cl)cc3)cn(-c3ccc(C)cc3)c21	24 µM	17.1 µM	31.8 µM	30.8 µM	14.8 µM	30.5 µM	26.5 µM	23.7 µM	21.6 µM	29 µM	32.2 µM					
CCC(C)[C@H](NC(=O)[C@H](Cc1ccccc1)NC(=O)N(CC)c1ccccc1)C(=O)N[C@@H](CC(C)C)C(=O)OC (some centres not stated)	> 100 µM	> 100 µM	> 100 µM	> 100 µM	> 100 µM	> 100 µM	61.5 µM	> 100 µM	> 100 µM	> 100 µM	> 100 µM					
O=C(CSCC(=O)N/N=C/c1cc(I)cc(I)c1O)N/N=C/c1cc(I)cc(I)c1O	27.9 µM	63.8 µM	> 100 µM	79.2 µM	38.1 µM	33.4 µM	25.3 µM	92.9 µM	> 100 µM	35 µM	> 100 µM					
